The text below walks through data of US9676714B2, “Sulfonylindole derivatives and method for preparing the same” (Daewoong Pharmaceutical Co., Ltd., priority 2013, dated 2017).

SMILES strings stand for the structures. Counter-ions that a name gives are not always drawn.

For the assay, the target named is T1, proton pump (H+/K+-ATPase) (Sus scrofa, UniProt P19156).
T1 construct: Gastric vesicles were prepared from hog stomach via centrifugal separation; from tissue; host or cells: hog stomach (gastric vesicles, method of Rabon et al. 1988)
T1 sequence (P19156 whole entry): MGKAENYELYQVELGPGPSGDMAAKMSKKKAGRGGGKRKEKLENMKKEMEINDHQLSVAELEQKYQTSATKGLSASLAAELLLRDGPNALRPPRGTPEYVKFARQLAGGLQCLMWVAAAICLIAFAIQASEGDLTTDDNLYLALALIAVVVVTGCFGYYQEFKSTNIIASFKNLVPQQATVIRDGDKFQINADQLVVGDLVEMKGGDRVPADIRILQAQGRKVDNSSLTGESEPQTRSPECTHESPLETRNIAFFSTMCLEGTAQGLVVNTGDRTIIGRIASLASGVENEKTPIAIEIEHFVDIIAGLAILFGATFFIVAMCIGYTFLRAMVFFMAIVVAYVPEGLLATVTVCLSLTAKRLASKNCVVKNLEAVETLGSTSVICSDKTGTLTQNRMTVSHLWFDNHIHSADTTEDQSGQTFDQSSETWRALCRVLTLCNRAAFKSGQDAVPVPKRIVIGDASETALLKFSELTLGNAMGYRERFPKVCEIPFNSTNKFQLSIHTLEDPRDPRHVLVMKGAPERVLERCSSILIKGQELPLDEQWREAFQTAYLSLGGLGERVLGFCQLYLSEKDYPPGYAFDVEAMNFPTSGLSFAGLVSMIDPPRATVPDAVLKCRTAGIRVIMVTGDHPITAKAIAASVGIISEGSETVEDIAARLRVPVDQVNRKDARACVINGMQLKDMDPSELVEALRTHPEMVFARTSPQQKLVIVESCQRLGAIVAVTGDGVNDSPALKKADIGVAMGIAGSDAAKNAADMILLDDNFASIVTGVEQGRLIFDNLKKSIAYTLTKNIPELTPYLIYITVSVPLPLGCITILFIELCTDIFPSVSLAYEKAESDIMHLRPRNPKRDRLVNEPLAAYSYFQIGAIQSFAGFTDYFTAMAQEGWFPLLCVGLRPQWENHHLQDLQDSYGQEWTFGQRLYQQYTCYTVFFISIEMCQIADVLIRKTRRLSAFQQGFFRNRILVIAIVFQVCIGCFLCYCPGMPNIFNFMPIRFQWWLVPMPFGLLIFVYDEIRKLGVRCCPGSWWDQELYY
T1 sequence (P18434 whole entry partner): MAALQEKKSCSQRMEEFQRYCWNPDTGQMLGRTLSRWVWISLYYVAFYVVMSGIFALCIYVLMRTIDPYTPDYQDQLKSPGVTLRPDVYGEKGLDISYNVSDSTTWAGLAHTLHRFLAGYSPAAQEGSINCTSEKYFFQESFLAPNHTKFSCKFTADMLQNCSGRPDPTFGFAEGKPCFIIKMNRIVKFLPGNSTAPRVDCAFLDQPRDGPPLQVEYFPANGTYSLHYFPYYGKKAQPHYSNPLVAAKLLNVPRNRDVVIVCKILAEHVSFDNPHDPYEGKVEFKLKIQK
Kind of assay: Measurement of inhibitory effects on proton pump (H+/K+-ATPase) activities. The conditions noted are these: hog gastric vesicles, K+-specific H+/K+-ATPase activity, Tris-HCl buffer pH 7.4, 37° C. for 40 minutes, malachite green Pi readout. Type of assay: biochemical. The method in brief:
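Hog gastric vesicles in 60 mmol/l Tris-HCl pH 7.4 with 0.5% DMSO were treated with compounds at room temperature; reaction was started with 10 μl of 10 mmol/l ATP stock. Released Pi was read at 570 nm, K+-specific activity taken as the ±K+ difference. IC50 from 4-parameter logistic fit.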
A word on the IC50: it is the midpoint of a concentration-inhibition curve. Read a low IC50 as inhibition by little substance. In turn, `CNCc1cn(S(=O)(=O)c2ccc(OC)cc2)c2cc(Cc3ccc(C)cc3Cl)ccc12` [Example 307, 1-(6-(2-chloro-4-methylbenzyl)-1-((4-methoxyphenyl)sulfonyl)-1H-indol-3-yl)-N-methylmethanamine] returned an IC50 of 1.21 µM.
Consider `CNCc1cn(S(=O)(=O)c2ccc(OC(F)F)cc2)c2cc(Cc3ccc(C)cc3Cl)ccc12` [Example 308, 1-(6-(2-chloro-4-methylbenzyl)-1-((4-(difluoromethoxy)phenyl)sulfonyl)-1H-indol-3-yl)-N-methylmethanamine], for which the IC50 worked out at 1.34 µM.
As for `CNCc1cn(S(=O)(=O)c2cccnc2)c2cc(Oc3ccccc3[N+](=O)[O-])ccc12` [Example 310, N-methyl-1-(6-(2-nitrophenoxy)-1-(pyridin-3-ylsulfonyl)-1H-indol-3-yl)methanamine hydrochloride], the figure is 0.33 µM; as for `CNCc1cn(S(=O)(=O)c2cccnc2)c2cc(Oc3ccc(C(F)(F)F)cc3Cl)ccc12` [Example 311, 1-(6-(2-chloro-4-(trifluoromethyl)phenoxy)-1-(pyridin-3-ylsulfonyl)-1H-indol-3-yl)-N-methylmethanamine hydrochloride], 4.17 µM; as for `CNCc1cn(S(=O)(=O)c2cccnc2)c2cc(Oc3ncc(C(F)(F)F)cc3Cl)ccc12` [Example 312, 1-(6-((3-chloro-5-(trifluoromethyl)pyridin-2-yl)oxy)-1-(pyridin-3-ylsulfonyl)-1H-indol-3-yl)-N-methylmethanamine hydrochloride], 0.66 µM.
In turn, `CNCc1cn(S(=O)(=O)c2cccnc2)c2cc(Oc3ncc(F)cn3)ccc12` [Example 313, 1-(6-((5-fluoropyrimidin-2-yl)oxy)-1-(pyridin-3-ylsulfonyl)-1H-indol-3-yl)-N-methylmethanamine hydrochloride] showed an IC50 of 25 µM.
As for `CNCc1cn(S(=O)(=O)c2cccnc2)c2cc(Oc3cc(Cl)ncn3)ccc12` [Example 314, 1-(6-((6-chloropyrimidin-4-yl)oxy)-1-(pyridin-3-ylsulfonyl)-1H-indol-3-yl)-N-methylmethanamine hydrochloride], the figure is 19.4 µM.
Next, `CCNCc1cn(S(=O)(=O)c2cccc(C(F)(F)F)c2)c2cc(Nc3ccc(OC)nc3Cl)ccc12` [Example 317, N-(2-chloro-6-methoxypyridin-3-yl)-3-((ethylamino)methyl)-1-((3-(trifluoromethyl)phenyl)sulfonyl)-1H-indol-6-amine]: 1.92 µM; `COc1ccc(Nc2ccc3c(CN4CCCC4)cn(S(=O)(=O)c4cccc(C(F)(F)F)c4)c3c2)c(Cl)n1` [Example 318, N-(2-chloro-6-methoxypyridin-3-yl)-3-(pyrrolidin-1-ylmethyl)-1-((3-(trifluoromethyl)phenyl)sulfonyl)-1H-indol-6-amine]: 4.25 µM; `COc1ccc(Nc2ccc3c(CN(C)C)cn(S(=O)(=O)c4cccc(C(F)(F)F)c4)c3c2)c(Cl)n1` [Example 319, N-(2-chloro-6-methoxypyridin-3-yl)-3-((dimethylamino)methyl)-1-((3-(trifluoromethyl)phenyl)sulfonyl)-1H-indol-6-amine]: 1.24 µM.
As for `CNC(=O)c1cn(S(=O)(=O)c2cccc(C(F)(F)F)c2)c2cc(Nc3ccc(OC)nc3Cl)ccc12` [Example 320, 6-((2-chloro-6-methoxypyridin-3-yl)amino)-N-methyl-1-((3-(trifluoromethyl)phenyl)sulfonyl)-1H-indol-3-carboxamide], the figure is 20 µM; as for `COc1ccc(Nc2ccc3c(C(=O)N(C)C)cn(S(=O)(=O)c4cccc(C(F)(F)F)c4)c3c2)c(Cl)n1` [Example 321, 6-((2-chloro-6-methoxypyridin-3-yl)amino)-N,N-dimethyl-1-((3-(trifluoromethyl)phenyl)sulfonyl)-1H-indol-3-carboxamide], 3.35 µM.
As to `Cc1ccc(Nc2ccc3c(C(=O)N(C)C)cn(S(=O)(=O)c4cccnc4)c3c2)c(F)c1` [Example 322, 6-((2-fluoro-4-methylphenyl)amino)-N,N-dimethyl-1-(pyridin-3-ylsulfonyl)-1H-indol-3-carboxamide], the IC50 was found to be 24 µM.
